The numbers were not newly measured in PMC3834896, which cites them from elsewhere.

Like-named read-outs stand apart in the source and are kept apart here.

The nature of this data set: not told.

In the case of `CCCCCCCCCCN1CCCC1=O`, the “log partition n-octanol / PBS or water” value was 4.1 log10. On to `CCCCN1CCCCCC1=O`, for which the “log partition n-octanol / PBS or water” value (not told) is 1.8 log10. Regarding `CCCCCC(=O)N(C)C`, for the setting “not told”, the “log partition n-octanol / PBS or water” value was 1.4 log10. With `CCCCCCN1CCCC1=O`, the “log partition n-octanol / PBS or water” value is 2.1 log10. With `CCCCCCCCC(=O)N(C)C`, the “log partition n-octanol / PBS or water” value (not told) is 1.9 log10.

As to `CCCCCCCC(=O)N(C)C`, for the setting “not told”, the “log partition n-octanol / PBS or water” value was 2.6 log10. Regarding `CCCCCCC(=O)N(C)C`, where the note is “not told”, the “log partition n-octanol / PBS or water” value is on record as 1.9 log10.

As to `CCCCCCCCCC(=O)N1CC(O)CC1C(=O)NCC` (centres unmarked), the “log partition n-octanol / PBS or water” value (not told) is 2.9 log10. Regarding `CCCCCCCCCCCCN1CCCC1=O`, the “log partition n-octanol / PBS or water” value is given as 4.9 log10.

Take `CCCCCCCCN1CCCCCC1=O`: the “log partition n-octanol / PBS or water” value (not told) was 4.0 log10. For the molecule `CCCCCCCCN1CCCCC1=O`, the “log partition n-octanol / PBS or water” value is listed as 3.4 log10. As for `CCCCN1CCCC1=O`, the “log partition n-octanol / PBS or water” value is listed as 1.02 log10.

In the case of `CCCCCCCCN1CCCC1=O`, the “log partition n-octanol / PBS or water” value is reported as 3.0 log10. On to `CCCCCCCCCCCCN1CCCCCC1=O`, for which the “log partition n-octanol / PBS or water” value (not told) is 6.3 log10. Regarding `CCCCCCN1CCCCCC1=O`, where the note is “not told”, the “log partition n-octanol / PBS or water” value is on record as 2.9 log10. Take `CCCCN1CCCCC1=O`: the “log partition n-octanol / PBS or water” value is listed as 1.4 log10. In the case of `CCCCCCN1CCCCC1=O`, the “log partition n-octanol / PBS or water” value is on record as 2.6 log10.
